In patent US9273003B2, “Methods of treating lymphoma and rheumatoid arthritis with cyclopentyl (2S)-cyclohexyl[({6-[3-(hydroxyamino)-3-oxopropyl]pyridin-3-yl}methyl)amino]acetate” (GlaxoSmithKline Intellectual Property Development Limited, priority 2006, dated 2016):

Columns and labels:
[1] = target: histone deacetylase activity (HeLa nuclear extract); assay: HDAC fluorescent activity assay (Fluor de Lys, Biomol); type: biochemical; conditions: IC50 allocated to ranges, read-out: HDAC activity
Experimental: The ability of compounds to inhibit histone deacetylase activities was measured using the commercially available HDAC fluorescent activity assay from Biomol. In brief, the Fluor de Lys™ substrate, a lysine with an epsilon-amino acetylation, is incubated with the source of histone deacetylase activity (HeLa nuclear extract) in the presence or absence of inhibitor. Deacetylation of the substrate sensitises the substrate to Fluor de Lys™ developer, which generates a fluorophore. Thus, incubation of the substrate with a source of HDAC activity results in an increase in signal that is diminished in the presence of an HDAC inhibitor.
Data are expressed as a percentage of the control, measured in the absence of inhibitor, with background signal being subtracted from all samples, as follows: % activity=[(S^i−B)/(S^o−B)]×100 where S^i is the signal in the presence of substrate, enzyme and inhibitor, S^o is the signal in the presence of substrate, enzyme and the vehicle in which the inhibitor is dissolved, and B is the background signal measured in the absence of enzyme.
IC50 values were determined by non-linear regression analysis, after fitting the results of eight data points to the equation for sigmoidal dose response with variable slope (% activity against log concentration of Compound), using Graphpad Prism software.
Histone deacetylase activity from crude nuclear extract derived from HeLa cells was used for screening. The preparation, purchased from 4C (Seneffe, Belgium), was prepared from HeLa cells harvested whilst in exponential growth phase. The nuclear extract was prepared according to the methodology described by J. D. Dignam, Nucl. Acid. Res., 1983, 11, 1475-1489, snap frozen in liquid nitrogen and stored at −80° C. The final buffer composition was 20 mM Hepes, 100 mM KCl, 0.2 mM EDTA, 0.5 mM DTT, 0.2 mM PMSF and 20% (v/v) glycerol.

U937 cells = assay: U937 cell inhibition assay (WST-1 cell viability); type: cell-based; conditions: Homo sapiens, U-937; U937 cells; IC50 allocated to ranges; read-out: U937 activity
Experimental: (§1) Cancer cell lines (U937 and HUT) growing in log phase were harvested and seeded at 1000-2000 cells/well (100 μl final volume) into 96-well tissue culture plates. Following 24 h of growth cells were treated with Compound. Plates were then re-incubated for a further 72-96 h before a WST-1 cell viability assay was conducted according to the suppliers (Roche Applied Science) instructions.
(§2) Data were expressed as a percentage inhibition of the control, measured in the absence of inhibitor, as follows: % inhibition=100−[(S^i/S^o)×100] where S^i is the signal in the presence of inhibitor and S^o is the signal in the presence of DMSO.
(§3) Dose response curves were generated from 8 concentrations (top final concentration 10 μM, with 3-fold dilutions), using 6 replicates.
(§4) IC50 values were determined by non-linear regression analysis, after fitting the results to the equation for sigmoidal dose response with variable slope (% activity against log concentration of Compound), using Graphpad Prism software.

HUT78 cells = assay: HUT cell inhibition assay (WST-1 cell viability); type: cell-based; conditions: Homo sapiens; HUT78 cells; IC50 allocated to ranges; read-out: HUT activity
Experimental: as §1, §2, §3, §4

Row | Structure (SMILES) | IC50 [1] | IC50 (U937 cells) | IC50 (HUT78 cells)
1 | O=C(CCc1cccc(CN[C@H](C(=O)OC2CCCC2)C2CCCCC2)c1)NO [Example 50, Cyclopentyl (2S)-cyclohexyl({3-[3-(hydroxyamino)-3-oxopropyl]benzyl}amino)acetate] | 101 to 1000 nM | 331 to 3300 nM | 331 to 3300 nM
2 | O=C(/C=C/c1ccc(CN[C@H](C(=O)OCCN2CCOCC2)C2CCCCC2)cc1)NO [Example 30, 2-Morpholin-4-ylethyl (2S)-cyclohexyl({4-[(1E)-3-(hydroxyamino)-3-oxoprop-1-en-1-yl]benzyl}amino)acetate] | 101 to 1000 nM | < 330 nM | < 330 nM
3 | CC(C)(C)OC(=O)[C@@H](NCc1ccc(/C=C/C(=O)NO)nc1)C1CCCCC1 [Example 59, tert-Butyl (2S)-cyclohexyl[({6-[(1E)-3-(hydroxyamino)-3-oxoprop-1-en-1-yl]pyridin-3-yl}methyl)amino]acetate] | < 100 nM | < 330 nM | < 330 nM
4 | CN(C)CCOC(=O)[C@@H](NCc1ccc(/C=C/C(=O)NO)cc1)C1CCCCC1 [Example 31, 2-(Dimethylamino)ethyl (2S)-cyclohexyl({4-[(1E)-3-(hydroxyamino)-3-oxoprop-1-en-1-yl]benzyl}amino)acetate] | < 100 nM | < 330 nM | 331 to 3300 nM
5 | CC(C)C[C@H](NCc1ccc(CCC(=O)NO)cc1)C(=O)OC(C)(C)C [Example 41, tert-Butyl N-{4-[3-(hydroxyamino)-3-oxopropyl]benzyl}-L-leucinate] | 101 to 1000 nM | < 330 nM | 331 to 3300 nM
6 | O=C(/C=C/c1ccc(CN[C@@H](C(=O)OC2CCCC2)c2ccccc2)cc1)NO [Example 22, Cyclopentyl (2R)-({4-[(1E)-3-(hydroxyamino)-3-oxoprop-1-en-1-yl]benzyl}amino)(phenyl)acetate] | 101 to 1000 nM | 331 to 3300 nM | 331 to 3300 nM

Second part, led by results:

Row | IC50 [1] | IC50 (U937 cells) | Structure (SMILES) | IC50 (HUT78 cells)
7 | < 100 nM | < 330 nM | CC(C)C[C@H](NC(C)c1ccc(/C=C/C(=O)NO)cc1)C(=O)OC(C)(C)C (stereo partly drawn) [Example 85, tert-Butyl N-(1-{4-[(1E)-3-(hydroxyamino)-3-oxoprop-1-en-1-yl]phenyl}ethyl)-L-leucinate] | < 330 nM
8 | 101 to 1000 nM | 331 to 3300 nM | O=C(CCc1ccc(CN2CCNC(C(=O)OC3CCCC3)C2)cc1)NO (stereo not drawn) [Example 113, Cyclopentyl 4-{4-[3-(hydroxyamino)-3-oxopropyl]benzyl}piperazine-2-carboxylate] | 331 to 3300 nM
9 | < 100 nM | < 330 nM | O=C(/C=C/c1ccc(CN[C@H](C(=O)OC2CCCC2)C2CCCCC2)nc1)NO [Example 68, Cyclopentyl (2S)-cyclohexyl[({5-[(1E)-3-(hydroxyamino)-3-oxoprop-1-en-1-yl]pyridin-2-yl}methyl)amino]acetate] | 331 to 3300 nM
10 | 101 to 1000 nM | < 330 nM | CC(C)C[C@H](NC(C)c1ccc(CCC(=O)NO)cc1)C(=O)OC(C)(C)C (stereo partly drawn) [Example 86, tert-Butyl N-(1-{4-[3-(hydroxyamino)-3-oxopropyl]phenyl}ethyl)-L-leucinate] | 331 to 3300 nM
11 | 101 to 1000 nM | < 330 nM | O=C(CCc1ccc(CN[C@H](C(=O)OC2CCCC2)C2CCCCC2)nc1)NO [Example 70, Cyclopentyl (2S)-cyclohexyl[({5-[3-(hydroxyamino)-3-oxopropyl]pyridin-2-yl}methyl)amino]acetate] | 331 to 3300 nM
12 | < 100 nM | < 330 nM | CC(C)C[C@H](NCc1ccc(CCC(=O)NO)nc1)C(=O)OC(C)(C)C [Example 66, tert-Butyl N-({6-[3-(hydroxyamino)-3-oxopropyl]pyridin-3-yl}methyl)-L-leucinate] | 331 to 3300 nM
13 | < 100 nM | < 330 nM | O=C(CCc1ccc(CN[C@H](C(=O)OC2CCCC2)C2CCCCC2)cn1)NO [Example 62, Cyclopentyl (2S)-cyclohexyl[({6-[3-(hydroxyamino)-3-oxopropyl]pyridin-3-yl}methyl)amino]acetate] | 331 to 3300 nM
